The values that follow come from patent US20230286928A1, “HETEROCYCLIC COMPOUNDS USEFUL IN THE TREATMENT OF DISEASE” (Epigen Biosciences, Inc., priority 2018, published 2023).

This assay has as its target T1, LPA1R (Homo sapiens, UniProt Q92633).
T1 construct: host or cells: LPA1R expressing cells (Millipore, GPCR Profiler)
The assay can be described thus: Calcium flux assay: inhibition of LPA-stimulated Ca2+ flux (FLIPR, antagonist mode). The conditions noted are these: LPA1R Ca2+ flux functional assay, LPA1R expressing cells challenged with EC80 of LPA, read-out: LPA1 R Antagonist Activity. It counts as cell-based. How it is done:
Inhibition of LPA-stimulated Ca^2+ flux was used to assess compound potency using FLIPR technology in a 96 well plate format. The assay buffer used was a modified Hanks Balanced Salt Solution (HBSS) where HBSS was supplemented to contain 20 mM HEPES and 2.5 mM Probenecid at pH7.4 (Millipore, GPCR Profiler®). LPA1R expressing cells (Millipore) were plated and prepared 24 hours prior to assay of test articles. Ca^2+ ion flux was assessed from fluorescence of a Fluo-based No Wash Ca^2+ dye. Antagonist data are generated from plates with LPA concentrations sufficient to generate 80% efficacy [EC80]. Percentage inhibition was calculated from a reduction of efficacy according to concentration of compounds of Formula I-VI. For dose responses the inhibition data was used to calculate compound IC50.
The agonist assay was conducted on a FLIPR^TETRA instrument where the test compound(s), vehicle controls, and reference agonist were added to the assay plate after a fluorescence baseline was established. The agonist assay was a total of 180 seconds and was used to assess each compound's ability to activate each GPCR assayed. Upon completion of the agonist assay, the assay plate was removed from the FLIPR^TETRA and incubated at 25° C. for seven (7) minutes. After the incubation period, the assay plate was placed back in the FLIPR^TETRA and the antagonist assay was initiated.
Antagonist Assay: Using EC80 potency values determined during the agonist assay, all pre-incubated sample compound wells were challenged with EC80 concentration of reference agonist after establishment of a fluorescence baseline. The antagonist assay was conducted using the same assay plate that was used for the agonist assay. The antagonist assay was conducted on a FLIPR^TETRA instrument where 9 vehicle controls and EC80 concentration of reference agonist were added to appropriate wells. The antagonist assay was a total of 180 seconds and was used to assess each compound's ability to inhibit each GPCR assayed.
Data Processing: All assay plate data were subjected to appropriate baseline corrections. After baseline corrections were applied, maximum fluorescence values were exported and data processed to calculate percentage activation (relative to Emax reference agonist and vehicle control values), percentage inhibition (relative to EC80 and vehicle control values), and additional statistical values (i.e. Z′, percentage variation between replicate data values) to assess the quality of each plate. Where assay plate data were rejected, additional experiments were conducted. All dose response curves were generated using GraphPad Prism. The curves were fit by utilizing “Sigmoidal Dose Response (Variable Slope)” equation where the bottom parameter was fixed to “0.” Where appropriate, the top parameter was fixed to “100” to better predict potency values when a full curve was not generated by the concentrations assayed.
Background: Calcium assays in cells follow changes in intracellular calcium, usually with a dye or a luminescent sensor.

T1 sequence (Q92633 whole entry): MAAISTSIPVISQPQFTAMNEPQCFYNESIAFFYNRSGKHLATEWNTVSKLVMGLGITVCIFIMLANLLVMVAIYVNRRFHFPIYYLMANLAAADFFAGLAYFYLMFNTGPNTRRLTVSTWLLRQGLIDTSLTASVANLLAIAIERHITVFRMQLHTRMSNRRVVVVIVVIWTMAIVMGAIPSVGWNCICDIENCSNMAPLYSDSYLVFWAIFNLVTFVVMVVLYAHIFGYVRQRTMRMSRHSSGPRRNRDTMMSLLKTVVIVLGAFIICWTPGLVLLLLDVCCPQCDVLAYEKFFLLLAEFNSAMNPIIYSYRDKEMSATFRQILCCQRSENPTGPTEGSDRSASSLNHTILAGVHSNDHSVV

Regarding `C[C@@H](OC(=O)Nc1c(F)cnn1-c1ccc(-c2ccc(C3(C(=O)O)CC3)cc2)nc1)c1ccccc1Cl` [Compound 1, (R)-1-(4-(5-(5-(((1-(2-chlorophenyl)ethoxy)carbonyl)amino)-4-fluoro-1H-pyrazol-1-yl)pyridin-2-yl)phenyl)cyclopropane-1-carboxylic acid], the IC50 was < 300 nM.

With `C[C@@H](OC(=O)Nc1c(Cl)cnn1-c1ccc(-c2ccc(C3(C(=O)O)CC3)cc2)nc1)c1ccccc1Cl` [Compound 2, (R)-1-(4-(5-(4-chloro-5-(((1-(2-chlorophenyl)ethoxy)carbonyl)amino)-1H-pyrazol-1-yl)pyridin-2-yl)phenyl)cyclopropane-1-carboxylic acid], the IC50 was < 300 nM.

In the case of `C[C@@H](OC(=O)Nc1c(F)cnn1-c1ccc(-c2ccc(C3(C(=O)O)CC3)cc2)cc1)c1ccccc1` [Compound 3, (R)-1-(4′-(4-fluoro-5-(((1-phenylethoxy)carbonyl)amino)-1H-pyrazol-1-yl)-[1,1′-biphenyl]-4-yl)cyclopropane-1-carboxylic acid], the IC50 was < 300 nM.

Consider `C[C@@H](OC(=O)Nc1c(Cl)cnn1-c1ccc(-c2ccc(C3(C(=O)O)CC3)cc2)cc1)c1ccccc1` [Compound 4, (R)-1-(4′-(4-chloro-5-(((1-phenylethoxy)carbonyl)amino)-1H-pyrazol-1-yl)-[1,1′-biphenyl]-4-yl)cyclopropane-1-carboxylic acid], for which the IC50 is < 300 nM.

In the case of `C[C@@H](OC(=O)Nc1c(C#N)cnn1-c1ccc(-c2ccc(C3(C(=O)O)CC3)cc2)cc1)c1ccccc1` [Compound 5, (R)-1-(4′-(4-cyano-5-(((1-phenylethoxy)carbonyl)amino)-1H-pyrazol-1-yl)-[1,1′-biphenyl]-4-yl)cyclopropane-1-carboxylic acid], the IC50 is < 300 nM.

Consider `C[C@@H](OC(=O)Nc1c(C#N)cnn1-c1ccc(-c2ccc(C3(C(=O)O)CC3)cc2)cc1)c1ccccc1Cl` [Compound 6, (R)-1-(4′-(5-(((1-(2-chlorophenyl)ethoxy)carbonyl)amino)-4-cyano-1H-pyrazol-1-yl)-[1,1′-biphenyl]-4-yl)cyclopropane-1-carboxylic acid], for which the IC50 is < 300 nM.

As for `C[C@@H](OC(=O)Nc1c(F)cnn1-c1ccc(-c2ccc(C3(C(=O)O)CC3)c(F)c2)cc1)c1ccccc1` [Compound 7, (R)-1-(3-fluoro-4′-(4-fluoro-5-(((1-phenylethoxy)carbonyl)amino)-1H-pyrazol-1-yl)-[1,1′-biphenyl]-4-yl)cyclopropane-1-carboxylic acid], the IC50 is < 300 nM.

Take `C[C@@H](OC(=O)Nc1c(F)cnn1-c1ccc(-c2ccc(C3(C(=O)O)CC3)cc2F)cc1)c1ccccc1` [Compound 8, (R)-1-(2-fluoro-4′-(4-fluoro-5-(((1-phenylethoxy)carbonyl)amino)-1H-pyrazol-1-yl)-[1,1′-biphenyl]-4-yl)cyclopropane-1-carboxylic acid]: the IC50 is < 300 nM.

Regarding `C[C@@H](OC(=O)Nc1c(Cl)cnn1-c1ccc(-c2ccc(C3(C(=O)O)CC3)c(F)c2)cc1)c1ccccc1` [Compound 9, (R)-1-(4′-(4-chloro-5-(((1-phenylethoxy)carbonyl)amino)-1H-pyrazol-1-yl)-3-fluoro-[1,1′-biphenyl]-4-yl)cyclopropane-1-carboxylic acid], the IC50 is < 300 nM.

As to `C[C@@H](OC(=O)Nc1c(Cl)cnn1-c1ccc(-c2ccc(C3(C(=O)O)CC3)cc2F)cc1)c1ccccc1` [Compound 10, (R)-1-(4′-(4-chloro-5-(((1-phenylethoxy)carbonyl)amino)-1H-pyrazol-1-yl)-2-fluoro-[1,1′-biphenyl]-4-yl)cyclopropane-1-carboxylic acid], the IC50 was < 300 nM.

Take `C[C@@H](OC(=O)Nc1c(F)cnn1-c1ccc(-c2ccc(C3(C(=O)O)CC3)cc2Cl)cc1)c1ccccc1` [Compound 11, (R)-1-(2-chloro-4′-(4-fluoro-5-(((1-phenylethoxy)carbonyl)amino)-1H-pyrazol-1-yl)-[1,1′-biphenyl]-4-yl)cyclopropane-1-carboxylic acid]: the IC50 was < 300 nM.

`C[C@@H](OC(=O)Nc1c(Cl)cnn1-c1ccc(-c2ccc(C3(C(=O)O)CC3)cc2Cl)cc1)c1ccccc1` [Compound 12, (R)-1-(2-chloro-4′-(4-chloro-5-(((1-phenylethoxy)carbonyl)amino)-1H-pyrazol-1-yl)-[1,1′-biphenyl]-4-yl)cyclopropane-1-carboxylic acid]: the IC50 is < 300 nM.

For `Cc1cc(C2(C(=O)O)CC2)ccc1-c1ccc(-n2ncc(F)c2NC(=O)O[C@H](C)c2ccccc2)cc1` [Compound 13, (R)-1-(4′-(4-fluoro-5-(((1-phenylethoxy)carbonyl)amino)-1H-pyrazol-1-yl)-2-methyl-[1,1′-biphenyl]-4-yl)cyclopropane-1-carboxylic acid], the IC50 was < 300 nM.

As for `Cc1cc(C2(C(=O)O)CC2)ccc1-c1ccc(-n2ncc(Cl)c2NC(=O)O[C@H](C)c2ccccc2)cc1` [Compound 14, (R)-1-(4′-(4-chloro-5-(((1-phenylethoxy)carbonyl)amino)-1H-pyrazol-1-yl)-2-methyl-[1,1′-biphenyl]-4-yl)cyclopropane-1-carboxylic acid], the IC50 was < 300 nM.

`C[C@@H](OC(=O)Nc1c(F)cnn1-c1ccc(-c2ccc(C3(C(N)=O)CC3)cc2)cc1)c1ccccc1Cl` [Compound 15, (R)-1-(2-chlorophenyl)ethyl (1-(4′-(1-carbamoylcyclopropyl)-[1,1′-biphenyl]-4-yl)-4-fluoro-1H-pyrazol-5-yl)carbamate]: the IC50 is < 300 nM.

For the compound `C[C@@H](OC(=O)Nc1c(F)cnn1-c1ccc(-c2ccc(C3(C(=O)NS(C)(=O)=O)CC3)cc2F)cc1)c1ccccc1Cl` [Compound 16, (R)-1-(2-chlorophenyl)ethyl (4-fluoro-1-(2′-fluoro-4′-(1-((methylsulfonyl)carbamoyl)cyclopropyl)-[1,1′-biphenyl]-4-yl)-1H-pyrazol-5-yl)carbamate], the IC50 was < 300 nM.

Consider `C[C@@H](OC(=O)Nc1c(F)cnn1-c1ccc(-c2ccc(C3(C(=O)NS(C)(=O)=O)CC3)cc2F)cc1)c1ccccc1` [Compound 17, (R)-1-phenylethyl (4-fluoro-1-(2′-fluoro-4′-(1-((methylsulfonyl)carbamoyl)cyclopropyl)-[1,1′-biphenyl]-4-yl)-1H-pyrazol-5-yl)carbamate], for which the IC50 was < 300 nM.

With `C[C@@H](OC(=O)Nc1c(Cl)cnn1-c1ccc(-c2ccc(C3(C(=O)NS(C)(=O)=O)CC3)cc2F)cc1)c1ccccc1Cl` [Compound 18, (R)-1-(2-chlorophenyl)ethyl (4-chloro-1-(2′-fluoro-4′-(1-((methylsulfonyl)carbamoyl)cyclopropyl)-[1,1′-biphenyl]-4-yl)-1H-pyrazol-5-yl)carbamate], the IC50 was < 300 nM.

As for `C[C@@H](OC(=O)Nc1c(Cl)cnn1-c1ccc(-c2ccc(C3(C(=O)NS(C)(=O)=O)CC3)cc2)cc1)c1ccccc1` [Compound 19, (R)-1-phenylethyl (4-chloro-1-(4′-(1-((methylsulfonyl)carbamoyl)cyclopropyl)-[1,1′-biphenyl]-4-yl)-1H-pyrazol-5-yl)carbamate], the IC50 is < 300 nM.

With `C[C@@H](OC(=O)Nc1c(F)cnn1-c1ccc(-c2ccc(C3(C(=O)NS(C)(=O)=O)CC3)cc2)cc1)c1ccccc1Cl` [Compound 20, (R)-1-(2-chlorophenyl)ethyl (4-fluoro-1-(4′-(1-((methylsulfonyl)carbamoyl)cyclopropyl)-[1,1′-biphenyl]-4-yl)-1H-pyrazol-5-yl)carbamate], the IC50 was < 300 nM.

With `C[C@@H](OC(=O)Nc1c(F)cnn1-c1ccc(-c2ccc(C3(c4nnn[nH]4)CC3)cc2)cc1)c1ccccc1Cl` [Compound 21, (R)-1-(2-chlorophenyl)ethyl (1-(4′-(1-(1H-tetrazol-5-yl)cyclopropyl)-[1,1′-biphenyl]-4-yl)-4-fluoro-1H-pyrazol-5-yl)carbamate], the IC50 fell in the range of 1000 to 50000 nM.

Regarding `C[C@@H](OC(=O)Nc1c(Cl)cnn1-c1ccc(-c2ccc(C3(c4nnn[nH]4)CC3)cc2)cc1)c1ccccc1` [Compound 22, (R)-1-phenylethyl (1-(4′-(1-(1H-tetrazol-5-yl)cyclopropyl)-[1,1′-biphenyl]-4-yl)-4-chloro-1H-pyrazol-5-yl)carbamate], the IC50 was < 300 nM.

As for `C[C@@H](OC(=O)Nc1c(Cl)cnn1-c1ccc(-c2ccc(C3(c4nnn[nH]4)CC3)cc2)cc1)c1ccccc1Cl` [Compound 23, (R)-1-(2-chlorophenyl)ethyl (1-(4′-(1-(1H-tetrazol-5-yl)cyclopropyl)-[1,1′-biphenyl]-4-yl)-4-chloro-1H-pyrazol-5-yl)carbamate], the IC50 lay within 1000 to 50000 nM.
